Reference: paper PMC7037732, “Synthesis of Combretastatin A-4 and 3′-Aminocombretastatin A-4 derivatives with Aminoacid Containing Pendants and Study of their Interaction with Tubulin and as Downregulators of the VEGF, hTERT and c-Myc Gene Expression” (Molecules, 2020)

Key:
[1] = tested on: MCF-7 (breast adenocarcinoma); assay: Inhibition of cell proliferation (MTT), MCF-7; assay type: cell-based, human; conditions: Table 2, 48 h of treatment (footnote), average ±SD of three experiments
From the text: (§1) The ability of the synthetic compounds to inhibit cell proliferation was established by means of their IC50 values towards the tumor cell lines HT-29 (human colon adenocarcinoma), MCF-7 (breast adenocarcinoma) and A-549 (human pulmonary adenocarcinoma), as well as towards the nontumor cell line HEK-293 (human embryonic kidney cells). Results for compounds derived from CA-4 are presented in Table 1, along with the calculated selectivity indexes SIA (for HT-29 cell line), SIB (for MCF-7 cell line) and SIc (for A-549 cell line), obtained by dividing the IC50 values of the nontumor cell line (HEK-293) by those of the corresponding tumor cell line. The higher the SI index, the higher the therapeutic safety margin.
(§2) Cell culture media were purchased from Gibco (Grand Island, NY, USA). Fetal bovine serum (FBS) was a product of Harlan-Seralab (Belton, U.K.). Supplements and other chemicals not listed in this section were obtained from Sigma Chemical Co. (St. Louis, MO, USA). Plastics for cell culture were supplied by Thermo Fischer Scientific Inc., Madrid, Spain. All tested compounds were dissolved in DMSO at a concentration of 10 μg/mL and stored at −20 °C until use. HT-29, MCF-7, A-549 and HEK-293 cell lines were maintained in a Dulbecco’s modified Eagle’s medium (DMEM) containing glucose (1 g/L), glutamine (2 mM), penicillin (50 IU/mL), streptomycin (50 μg/mL) and amphotericin B (1.25 μg/mL), supplemented with 10% FBS. Cells from human non-small lung carcinoma (clone A549; ATCC n°: CCL2, MD, USA) were routinely grown at 37 °C in a humidified atmosphere of 5% CO2. Cells were maintained in a standard medium composed of RPMI 1640 (Lonza, Group Ltd., Basel, Switzerland), supplemented with 10% fetal bovine serum (FBS), 2 mM L-glutamine and 1% penicillin and streptomycin (Invitrogen). Cells were free from mycoplasma as determined by MycoAlert tests (Lonza, Group Ltd., Basel, Switzerland).
(§3) A total of 5 × 10^3 HT-29, MCF-7 or HEK-293 cells in a total volume of 100 μL of their respective growth media were incubated with serial dilutions of the tested compounds. The 3-(4,5-dimethylthiazol-2-yl)-2,5-diphenyltetrazolium bromide (MTT; Sigma Chemical Co.) dye reduction assay in a 96-well microplate was used, as previously described. […] The resulting formazan was dissolved in 150 μL of 0.04 N HCl/2-propanol and read at 550 nm. All determinations were carried out in triplicate.

[2] = tested on: VEGF gene; assay: VEGF gene expression by RT-qPCR in HT-29 cells; assay type: cell-based, human; conditions: Homo sapiens, HT-29, 48 h, control 100; for mrna remaining at 0.015 µM: 15 nM
Procedure: (§4) The effect on the expression of VEGF, hTERT and c-Myc genes has been studied for CA-4 and its derivatives that show selectivity indexes higher than 0.9 on the HT-29 cell line. The studied derivatives, together with the concentrations to which they have been tested, are CA-4 (15 μM); 4.1 (Gly, 5 μM); 4.5 (L-Pro, 25 μM); 4.9 (L-Met, 25 μM); 6.2 (D-Leu, 25 μM); 6.3 (D-Phe, 25 μM); 6.4 (D-Pro, 25 μM) and 6.5 (D-Ser, 10 μM). The expression of the genes was determined by RT-qPCR methodology, as described in the Materials and Methods section.
(§5) As regards AmCA-4 derivatives, the effect on the expression of the VEGF, hTERT and c-Myc genes has been studied on those that show IC50 in the low nanomolar range on the HT-29 cell line and/or on compounds whose selectivity indexes with respect to this cell line are higher than 1. The studied compounds, together with the concentrations to which they have been tested, are: CA-4 (15 μM), AmCA-4 (15 nM), 7.1 (7 nM), 7.2 (1.5 nM), 7.3 (4 nM), 7.4 (15 nM), 7.5 (2 nM), 7.7 (7 nM), 7.8 (15 nM), 7.9 (30 nM), 8.1 (7 nM), 8.2 (3 nM), 8.3 (10 nM), 8.4 (1.5 nM), 8.5 (4 nM), 8.7 (7 nM), 8.8 (3 nM) and 8.9 (4 nM).
(§6) HT-29 cells at 70–80% confluence were collected, and 1.5 × 10^5 cells were placed in a six-well plate in 1.5 mL of the medium. After 24 h, cells were incubated with the corresponding compounds for 48 h. Cells were collected, and the total cellular RNA from the HT-29 cells was isolated using an Ambion RNA Extraction Kit, according to the manufacturer’s instructions. The cDNA was synthesized by MMLV-RT with […] of extracted RNA and oligo(dT)15, according to the manufacturer’s instructions. Genes were amplified by a thermal cycler and StepOnePlus™ TaqMan® probes. TaqMan® Gene Expression Master Mix Fast, containing the appropriate buffer for the amplification conditions, dNTPs, thermostable DNA polymerase enzyme and a passive reference probe, was used. To amplify each of the genes, the predesigned primers sold by Life Technologies TaqMan® Gene Expression Assays Hs99999903-m1 (β-actin), Hs00900055-m1 (VEGF), Hs00972646-m1 (hTERT) and Hs00153408-m1 (c-Myc) were used.

[3] = tested on: HEK-293 (human embryonic kidney cells); assay: Inhibition of cell proliferation (MTT), nontumor HEK-293; assay type: cell-based; conditions: Table 2, 48 h of treatment (footnote), average ±SD of three experiments
From the text: as §1, §2, §3

[4] = tested on: hTERT gene; assay: hTERT gene expression by RT-qPCR in HT-29 cells; assay type: cell-based, human; conditions: Homo sapiens, HT-29, 48 h, control 100; for mrna remaining at 0.015 µM: 15 nM
Procedure: as §4, §5, §6

[5] = tested on: c-Myc gene; assay: c-Myc gene expression by RT-qPCR in HT-29 cells; assay type: cell-based, human; conditions: Homo sapiens, HT-29, 48 h, control 100; for mrna remaining at 0.015 µM: 15 nM
Procedure: as §4, §5, §6

[6] = tested on: purified tubulin; assay: Critical concentration (CrC) for the assembly of purified tubulin in GAB; assay type: biochemical; conditions: compound 27.5 μM, tubulin 25 μM, glycerol (GAB) and GTP assembly buffer; control 7.9 ± 1.2
Procedure: The effect on the self-assembly of tubulin was determined by measuring the critical concentration (CrC).

[7] = tested on: HT-29 (human colon adenocarcinoma); assay: Inhibition of cell proliferation (MTT), HT-29; assay type: cell-based; conditions: Homo sapiens, HT-29, 48 h, Table 2; 48 h of treatment (footnote); average ±SD of three experiments
From the text: as §1, §2, §3

[8] = tested on: A-549 (human pulmonary adenocarcinoma); assay: Inhibition of cell proliferation (MTT), A-549; assay type: cell-based; conditions: Homo sapiens, A549, 48 h, Table 2; 48 h of treatment (footnote); average ±SD of three experiments
From the text: as §1
as §2, with “Switzerland). […]” for “Switzerland).”

[9] = tested on: A-549 cells; assay: Cell cycle distribution by flow cytometry; assay type: cell-based, human; conditions: A-549, 24 h, 0.5 µM
Procedure: The effects of some CA-4 derivatives on the cell cycle were evaluated in A-549 cells.
The effects of some AmCA-4 derivatives on the cell cycle were also evaluated in A-549 cells.
The supernatant and trypsinated cells were harvested and then centrifuged (1200 rpm, 5 min, 4 °C). The cell pellet was resuspended in 1 mL of cold 70% ethanol for 30 min at −20 °C. Cells were centrifuged (2000 rpm, 5 min, 4 °C) to remove ethanol, and then the cell pellet was resuspended in the staining mix containing 50 µg/mL propidium iodide (Molecular Probes, France) and 100 µg/mL RNAse A (Sigma, France) in PBS for 20 min at room temperature in darkness. Samples were analyzed on a Becton Dickinson FACScan flow cytometer using the CellQuest software, which was also used to determine the percentage of cells in the G2/M phases of the cell cycle. PI was excited at 488 nm, and fluorescence analyzed at 620 nm on channel Fl-2.

[10] = tested on: tubulin; assay: In vitro tubulin polymerization by turbidimetry (It50); assay type: biochemical; conditions: turbidimetry at 350 nm, 37 °C; for It50 (time required to reach 50% of the polymerization): control 16.6 ± 1.0
Procedure: Figure 3 also includes polymerization curves in the presence of CA-4, AmCA-4 and paclitaxel. This test was also performed using paclitaxel, a microtubule stabilizing agent, as a control for the complete formation of microtubules (see Figure 3).

Row | SMILES | IC50 ([1]; Homo sapiens, MCF7, 48 h) [nM] | IC50 ([3]; Homo sapiens, HEK293, 48 h) [nM] | CrC (critical concentration) [6] [µM] | IC50 [7] [nM] | IC50 [8] [nM] | It50 (time required to reach 50% of the polymerization) [10] [min] | further results
1 | COc1ccc(/C=C\c2cc(OC)c(OC)c(OC)c2)cc1NC(=O)[C@@H](NC(=O)OCC1c2ccccc2-c2ccccc21)C(C)C [Compound 7.3] | 100 ± 50 | 60 ± 20 | 6.9 ± 0.3 | 130 ± 40 | 870 ± 60 |  | mrna remaining at 0.004 µM ([2]; 4 nM): 23%; mrna remaining at 0.004 µM ([4]; 4 nM): > 100%; mrna remaining at 0.004 µM ([5]; 4 nM): 63%
2 | COc1ccc(/C=C\c2cc(OC)c(OC)c(OC)c2)cc1NC(=O)[C@@H](N)Cc1ccc(O)cc1 [Compound 8.8] | < 5 | < 5 | 7.7 ± 0.8 |  | 206 ± 20 |  | IC50 [1]: 4.9 ± 0.2 nM; mrna remaining at 0.003 µM ([2]; 3 nM): 72%; IC50 [3]: 2.7 ± 1.4 nM; mrna remaining at 0.003 µM ([4]; 3 nM): 46%; mrna remaining at 0.003 µM ([5]; 3 nM): 42%; G0/G1 [9]: 30 ± 2%; G2/M [9]: 52 ± 3%; S [9]: 18 ± 1%
3 | COc1ccc(/C=C\c2cc(OC)c(OC)c(OC)c2)cc1NC(=O)[C@@H](NC(=O)OCC1c2ccccc2-c2ccccc21)C(C)O (some centres unmarked) [Compound 7.7] | 25 ± 12 | 13 ± 2 | 12.0 ± 0.3 | 9 ± 3 | 422 ± 8 | 19.2 ± 0.3 | mrna remaining at 0.007 µM ([2]; 7 nM): 37%; mrna remaining at 0.007 µM ([4]; 7 nM): < 70%; mrna remaining at 0.007 µM ([5]; 7 nM): 56%
4 | COc1ccc(/C=C\c2cc(OC)c(OC)c(OC)c2)cc1NC(=O)[C@H](Cc1ccc(O)cc1)NC(=O)OCC1c2ccccc2-c2ccccc21 [Compound 7.8] | 12 ± 2 | 16 ± 2 | 10.1 ± 1.1 | 18 ± 5 | 8900 ± 1200 |  | mrna remaining at 0.015 µM [2]: 51%; mrna remaining at 0.015 µM [4]: 76%; mrna remaining at 0.015 µM [5]: > 100%
5 | COc1ccc(/C=C\c2cc(OC)c(OC)c(OC)c2)cc1NC(=O)[C@H]1CCCN1C(=O)OCC1c2ccccc2-c2ccccc21 [Compound 9.4] | 5300 ± 1100 | 3100 ± 1100 | 11.4 ± 0.2 | 5300 ± 300 | 12800 ± 800 | 16.5 ± 0.3 | 
6 | COc1ccc(/C=C\c2cc(OC)c(OC)c(OC)c2)cc1NC(=O)[C@H](CC(C)C)NC(=O)OCC1c2ccccc2-c2ccccc21 [Compound 7.4] | 9 ± 2 | 14 ± 3 | 9.9 ± 0.8 | 23 ± 10 | 490 ± 13 |  | mrna remaining at 0.015 µM [2]: 58%; mrna remaining at 0.015 µM [4]: 96%; mrna remaining at 0.015 µM [5]: 94%
7 | CC(=O)O[C@H]1C(=O)[C@@]2(C)[C@H]([C@H](OC(=O)c3ccccc3)[C@]3(O)C[C@H](OC(=O)[C@H](O)[C@@H](NC(=O)c4ccccc4)c4ccccc4)C(C)=C1C3(C)C)[C@]1(OC(C)=O)CO[C@@H]1C[C@@H]2O [Paclitaxel, paclitaxel, reference compound] |  |  |  |  |  | 3.2 ± 0.4 | time to reach the plateau phase of polymerization [10]: 30 min; Effect on in vitro tubulin polymerization ([10]; result in words): promotes tubulin polymerization
8 | COc1ccc(/C=C\c2cc(OC)c(OC)c(OC)c2)cc1NC(=O)[C@@H](N)CC(C)C [Compound 8.4] |  |  | 8.3 ± 0.3 |  | 167 ± 23 |  | mrna remaining at 0.0015 µM ([2]; 1.5 nM): 67%; mrna remaining at 0.0015 µM ([4]; 1.5 nM): 73%; mrna remaining at 0.0015 µM ([5]; 1.5 nM): 48%; G0/G1 [9]: 35 ± 1%; G2/M [9]: 48 ± 1%; S [9]: 17 ± 2%
